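Five concentrations, 48 hours, 96-well plates. GI50: concentration for 50% inhibition of growth.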 Calls of active or inactive are those of the source. Rule as the data show it: active = GI50 up to about 1.1 µM and inactive = higher.
Experiments:
Test in all cases: NCI tumour cell line growth inhibition, 48 h
DLD-1 = system: DLD-1
DMS-273 = system: DMS-273
M19-MEL = system: M19-MEL
KM-20L2 = system: KM-20L2
HOP-18 = system: HOP-18
XF498 = system: XF498
LXFL 529 = system: LXFL 529
DMS-114 = system: DMS-114
RXF 631 = system: RXF 631

Compound | GI50 (DLD-1) | GI50 (DMS-273) | GI50 (M19-MEL) | GI50 (KM-20L2) | GI50 (HOP-18) | GI50 (XF498) | GI50 (LXFL 529) | GI50 (DMS-114) | GI50 (RXF 631)
O=C1C2ON3c4ccccc4C(=O)C3(c3ccccc3)C2C(=O)N1c1ccccc1 (stereo unspecified) | > 100 µM (inactive) | > 100 µM (inactive) | > 100 µM (inactive) | > 100 µM (inactive) | > 100 µM (inactive) | > 100 µM (inactive) | > 100 µM (inactive) | – | –
CCOC(=O)C(=O)Nc1c(N(CC)CC)n2ccccc2nc1=O | > 100 µM (inactive) | > 100 µM (inactive) | > 100 µM (inactive) | > 100 µM (inactive) | – | > 100 µM (inactive) | > 100 µM (inactive) | > 100 µM (inactive) | > 100 µM (inactive)
O=c1ccn([C@H]2CSC[C@@H](CO)C2)c(=O)[nH]1 | > 100 µM (inactive) | > 100 µM (inactive) | > 100 µM (inactive) | > 100 µM (inactive) | > 100 µM (inactive) | – | > 100 µM (inactive) | > 100 µM (inactive) | > 100 µM (inactive)
CN1C(c2ccccc2)CC(O)CC1c1ccccc1 (stereo unspecified) | > 100 µM (inactive) | > 100 µM (inactive) | > 100 µM (inactive) | > 100 µM (inactive) | – | – | > 100 µM (inactive) | > 100 µM (inactive) | –
O=C(Nc1ccc(Cl)cc1)/C(Cc1cccc[n+]1[O-])=N\Nc1ccc([N+](=O)[O-])cc1[N+](=O)[O-] | > 100 µM (inactive) | > 100 µM (inactive) | > 100 µM (inactive) | > 100 µM (inactive) | – | – | > 100 µM (inactive) | > 100 µM (inactive) | > 100 µM (inactive)
CC(=O)OCC1OC(Sc2ccccn2)C=CC1OC(C)=O (stereo unspecified) | > 100 µM (inactive) | > 100 µM (inactive) | > 100 µM (inactive) | > 100 µM (inactive) | > 100 µM (inactive) | > 100 µM (inactive) | > 100 µM (inactive) | > 100 µM (inactive) | –
CC(=O)O[C@H]1C(=O)[C@@]2(C)C(C(OC(=O)c3ccccc3)[C@]3(O)CC(OC(=O)C(O)C(NC(=O)c4ccc(C)cc4)c4ccccc4)C(C)=C1C3(C)C)[C@]1(OC(C)=O)CO[C@@H]1C[C@@H]2O (stereo partly specified) | 0.0661 µM (active) | < 0.0025 µM (active) | < 0.0025 µM (active) | 0.00305 µM (active) | – | < 0.0025 µM (active) | 0.00424 µM (active) | < 0.0025 µM (active) | –
On1c(-c2ccccc2)c(-c2ccccc2N2CCCC2)c2ccccc21 | > 100 µM (inactive) | > 100 µM (inactive) | > 100 µM (inactive) | > 100 µM (inactive) | > 100 µM (inactive) | > 100 µM (inactive) | – | 47.2 µM (inactive) | –
Cc1cc(N)c(C)c2c1[nH]c1ccc(O)cc12 | – | > 100 µM (inactive) | 61 µM (inactive) | – | > 100 µM (inactive) | 56.4 µM (inactive) | – | > 10 µM (inactive) | –
C=CC1(CC)/C(=N\O)C(CC)(CC)C(=O)N1O (stereo unspecified) | > 100 µM (inactive) | > 100 µM (inactive) | > 100 µM (inactive) | > 100 µM (inactive) | – | 48.9 µM (inactive) | > 100 µM (inactive) | > 100 µM (inactive) | –
CC(=O)OC(C)(C)C1CCC(C)(C(O)COc2ccc(CCNC(=O)c3ccccc3)cc2)O1 (stereo unspecified) | 31.5 µM (inactive) | 33.3 µM (inactive) | 37.3 µM (inactive) | 73.1 µM (inactive) | > 100 µM (inactive) | 10.5 µM (inactive) | 25.1 µM (inactive) | 12.5 µM (inactive) | –
CCCCCCC1CCC2CCCC(C)N12 (stereo unspecified) | – | 27.4 µM (inactive) | 27.7 µM (inactive) | 25.2 µM (inactive) | 29.2 µM (inactive) | 19.4 µM (inactive) | > 10 µM (inactive) | 37 µM (inactive) | –
Cc1cc2c(c(C(N)=O)c1C)-c1cccc(Cl)c1C2=O | > 100 µM (inactive) | > 100 µM (inactive) | – | > 100 µM (inactive) | – | > 100 µM (inactive) | > 100 µM (inactive) | > 100 µM (inactive) | > 100 µM (inactive)
Cc1c(-c2nnc(-c3ccccc3)o2)c(=O)n(-c2ccccc2)n1C | > 100 µM (inactive) | > 100 µM (inactive) | > 100 µM (inactive) | > 100 µM (inactive) | > 100 µM (inactive) | > 100 µM (inactive) | > 100 µM (inactive) | > 100 µM (inactive) | –
CN1C2(c3ccccc3)c3c(-c4ccccc4)sc(-c4ccccc4)c3C1(c1ccccc1)C1C(=O)N(c3ccccc3)C(=O)C12 (stereo unspecified) | > 100 µM (inactive) | > 100 µM (inactive) | > 100 µM (inactive) | > 100 µM (inactive) | > 100 µM (inactive) | > 100 µM (inactive) | > 100 µM (inactive) | > 100 µM (inactive) | > 100 µM (inactive)
COc1cc(-c2[nH]ccc2Cl)oc1C1=C2N=C3C=C2C(C(C)C)C1CCCCCCCC3 (stereo unspecified) | 0.975 µM (active) | 0.589 µM (active) | 0.603 µM (active) | 0.308 µM (active) | 0.332 µM (active) | 1.38 µM (inactive) | 0.515 µM (active) | 0.485 µM (active) | –
COc1cc(C2C(Cl)C(=O)N2NC(=O)c2ccc(N)cc2)ccc1O (stereo unspecified) | 29.4 µM (inactive) | 47.5 µM (inactive) | 55.5 µM (inactive) | 63.7 µM (inactive) | – | 31.3 µM (inactive) | 16.6 µM (inactive) | – | –
CS(=O)(=O)c1ccc(-c2cc(-c3ccc(S(C)(=O)=O)cc3)[n+](-c3cc(-c4ccccc4)c([O-])c(-c4ccccc4)c3)c(-c3ccc(S(C)(=O)=O)cc3)c2)cc1 | – | > 100 µM (inactive) | > 100 µM (inactive) | > 100 µM (inactive) | > 100 µM (inactive) | > 100 µM (inactive) | > 100 µM (inactive) | > 100 µM (inactive) | > 100 µM (inactive)
O=c1ccccc2cccc(O)c12 | > 100 µM (inactive) | > 100 µM (inactive) | > 100 µM (inactive) | > 100 µM (inactive) | > 100 µM (inactive) | > 100 µM (inactive) | > 100 µM (inactive) | > 100 µM (inactive) | > 100 µM (inactive)
CN(C)c1ccc(/C=N/C23CC4CC(CC(C4)C2)C3)cc1 | – | > 100 µM (inactive) | > 100 µM (inactive) | > 100 µM (inactive) | – | – | – | > 100 µM (inactive) | –
COc1cc([C@H]2c3cc4c(cc3O[C@@]3(O)COC(=O)[C@@H]23)OCO4)cc(OC)c1OC | > 100 µM (inactive) | > 100 µM (inactive) | > 100 µM (inactive) | > 100 µM (inactive) | > 100 µM (inactive) | > 100 µM (inactive) | – | > 100 µM (inactive) | > 100 µM (inactive)
C=CC1=C(C)/C(=C/C2=NC(=C\c3[nH]c(CC4NC(=O)C(C)/C4=C\C)c(C)c3CCC(=O)O)/C(CC(=O)O)=C2C)NC1=O (stereo unspecified) | > 100 µM (inactive) | – | > 100 µM (inactive) | > 100 µM (inactive) | > 100 µM (inactive) | > 100 µM (inactive) | > 100 µM (inactive) | > 100 µM (inactive) | > 100 µM (inactive)
CN(C)/C=N\c1cc[nH]c(=O)n1 | > 100 µM (inactive) | > 100 µM (inactive) | > 100 µM (inactive) | > 100 µM (inactive) | > 100 µM (inactive) | > 100 µM (inactive) | > 100 µM (inactive) | > 100 µM (inactive) | > 100 µM (inactive)
O=c1c(NO)c([N+](=O)[O-])cnn1-c1ccccc1 | 3.6 µM (inactive) | 3.26 µM (inactive) | 3.67 µM (inactive) | 7.19 µM (inactive) | 22.1 µM (inactive) | 3.41 µM (inactive) | 1.76 µM (inactive) | 15.8 µM (inactive) | 2.48 µM (inactive)
Cc1ccc(NC(=O)CC2C(=O)Nc3ccccc3S2(=O)=O)cc1C (stereo unspecified) | > 100 µM (inactive) | > 100 µM (inactive) | > 100 µM (inactive) | > 100 µM (inactive) | – | > 100 µM (inactive) | > 100 µM (inactive) | > 100 µM (inactive) | > 100 µM (inactive)
CC(=O)NNc1nc(C)c(C(=O)/C=C/c2ccc(Cl)c(Cl)c2)s1 | > 100 µM (inactive) | > 100 µM (inactive) | > 100 µM (inactive) | > 100 µM (inactive) | > 100 µM (inactive) | – | – | > 100 µM (inactive) | > 100 µM (inactive)
Cc1ccccc1-n1c(=S)[nH]c2c(sc(=O)n2-c2ccccc2C)c1=O | > 100 µM (inactive) | > 100 µM (inactive) | > 100 µM (inactive) | > 100 µM (inactive) | > 100 µM (inactive) | – | > 100 µM (inactive) | > 100 µM (inactive) | > 100 µM (inactive)

From ChEMBL document CHEMBL1201862, “PubChem BioAssay data set” (2004)
